Where two headings read alike, the source gives them in different places.
Columns and labels:
insulin receptor = conditions: cited from earlier work
[1] = tested on: insulin-like growth factor receptor 1; conditions: cited from earlier work
[2] = biological target: T1, EphA2-ephrin-A1 interaction (EphA2-Fc ectodomain) (Mus musculus, UniProt Q03145); conditions: read-out: Ki, competitive antagonist of the EphA2 receptor; earlier work; cited from earlier work
VEGF receptor = conditions: cited from earlier work
EGF receptor [3] = biological target: T2, EGF receptor (Homo sapiens, UniProt P00533); conditions: cited from earlier work
T2 sequence (P00533 25-1210): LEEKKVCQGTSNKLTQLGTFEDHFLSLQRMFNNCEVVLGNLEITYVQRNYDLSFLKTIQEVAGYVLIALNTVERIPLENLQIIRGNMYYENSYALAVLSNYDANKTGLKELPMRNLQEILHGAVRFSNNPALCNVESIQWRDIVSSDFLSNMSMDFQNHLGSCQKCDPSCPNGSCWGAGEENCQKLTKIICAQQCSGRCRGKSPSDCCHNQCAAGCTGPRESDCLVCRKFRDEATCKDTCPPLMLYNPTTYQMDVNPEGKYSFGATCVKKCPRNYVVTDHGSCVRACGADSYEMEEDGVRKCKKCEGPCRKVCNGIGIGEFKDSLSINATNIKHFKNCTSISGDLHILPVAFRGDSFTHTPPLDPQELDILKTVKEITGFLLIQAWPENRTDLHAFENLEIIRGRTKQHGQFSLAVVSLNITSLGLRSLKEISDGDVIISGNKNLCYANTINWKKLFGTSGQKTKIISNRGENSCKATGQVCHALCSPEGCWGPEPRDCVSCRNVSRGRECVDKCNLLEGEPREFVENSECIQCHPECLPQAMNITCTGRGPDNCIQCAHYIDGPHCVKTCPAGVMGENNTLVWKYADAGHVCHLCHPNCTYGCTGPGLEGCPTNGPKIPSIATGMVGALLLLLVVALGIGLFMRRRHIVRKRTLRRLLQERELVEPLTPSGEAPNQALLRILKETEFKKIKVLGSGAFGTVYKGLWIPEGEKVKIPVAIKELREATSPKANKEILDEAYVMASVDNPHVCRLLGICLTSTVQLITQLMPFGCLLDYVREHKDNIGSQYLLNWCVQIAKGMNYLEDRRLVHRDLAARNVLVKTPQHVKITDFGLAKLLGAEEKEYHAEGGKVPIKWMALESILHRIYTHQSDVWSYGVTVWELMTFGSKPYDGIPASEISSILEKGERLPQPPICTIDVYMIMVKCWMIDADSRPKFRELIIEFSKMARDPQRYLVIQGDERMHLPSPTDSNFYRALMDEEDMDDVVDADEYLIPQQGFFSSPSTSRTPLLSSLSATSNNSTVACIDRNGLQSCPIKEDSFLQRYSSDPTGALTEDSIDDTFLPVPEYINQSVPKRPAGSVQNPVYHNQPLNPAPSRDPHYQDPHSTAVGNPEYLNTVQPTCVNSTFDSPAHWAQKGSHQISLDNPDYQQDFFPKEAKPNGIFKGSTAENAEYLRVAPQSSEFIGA

[4] = biological target: T1, EphA2-ephrin-A1 interaction (EphA2-Fc ectodomain); format: binding; conditions: for Activity in EphA2-ephrin-A1 binding assay, in words: tested starting from 200 μM; for Schild plot slope: slope between 0.8 and 1.2 indicates competitive binding
EphA2 receptor [5] = biological target: EphA2 receptor (Mus musculus, UniProt Q03145); test: Surface plasmon resonance; format: binding; conditions: for Kd: SPR
Chain of EphA2 receptor (Mus musculus, UniProt Q03145) (Q03145 26-538 limits assumed): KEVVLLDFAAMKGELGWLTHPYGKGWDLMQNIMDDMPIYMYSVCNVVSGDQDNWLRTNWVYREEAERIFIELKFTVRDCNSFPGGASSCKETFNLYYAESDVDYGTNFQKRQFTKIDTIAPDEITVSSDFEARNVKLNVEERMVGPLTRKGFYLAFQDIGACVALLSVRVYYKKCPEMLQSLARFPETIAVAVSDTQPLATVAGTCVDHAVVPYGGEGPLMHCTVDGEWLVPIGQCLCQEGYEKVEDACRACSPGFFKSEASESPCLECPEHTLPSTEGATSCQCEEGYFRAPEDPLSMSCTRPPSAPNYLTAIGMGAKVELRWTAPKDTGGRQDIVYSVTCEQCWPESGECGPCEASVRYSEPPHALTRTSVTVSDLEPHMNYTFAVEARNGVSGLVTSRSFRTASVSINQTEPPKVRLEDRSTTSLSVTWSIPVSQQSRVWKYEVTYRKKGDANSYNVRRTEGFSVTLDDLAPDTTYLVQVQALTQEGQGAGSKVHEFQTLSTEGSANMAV

EGF receptor [6] = biological target: T2, EGF receptor; test: EGF receptor phosphorylation induced by EGF in PC3 cells; format: cell-based; conditions: up to 100 μM, 30 ng/ml EGF
EphA2 receptor [7] = biological target: EphA2 receptor (Homo sapiens, UniProt P29317); test: EphA2 phosphorylation induced by ephrin-A1-Fc in PC3 cells; format: cell-based; conditions: no ephrin, data not shown
Chain of EphA2 receptor (Homo sapiens, UniProt P29317) (P29317 24-976): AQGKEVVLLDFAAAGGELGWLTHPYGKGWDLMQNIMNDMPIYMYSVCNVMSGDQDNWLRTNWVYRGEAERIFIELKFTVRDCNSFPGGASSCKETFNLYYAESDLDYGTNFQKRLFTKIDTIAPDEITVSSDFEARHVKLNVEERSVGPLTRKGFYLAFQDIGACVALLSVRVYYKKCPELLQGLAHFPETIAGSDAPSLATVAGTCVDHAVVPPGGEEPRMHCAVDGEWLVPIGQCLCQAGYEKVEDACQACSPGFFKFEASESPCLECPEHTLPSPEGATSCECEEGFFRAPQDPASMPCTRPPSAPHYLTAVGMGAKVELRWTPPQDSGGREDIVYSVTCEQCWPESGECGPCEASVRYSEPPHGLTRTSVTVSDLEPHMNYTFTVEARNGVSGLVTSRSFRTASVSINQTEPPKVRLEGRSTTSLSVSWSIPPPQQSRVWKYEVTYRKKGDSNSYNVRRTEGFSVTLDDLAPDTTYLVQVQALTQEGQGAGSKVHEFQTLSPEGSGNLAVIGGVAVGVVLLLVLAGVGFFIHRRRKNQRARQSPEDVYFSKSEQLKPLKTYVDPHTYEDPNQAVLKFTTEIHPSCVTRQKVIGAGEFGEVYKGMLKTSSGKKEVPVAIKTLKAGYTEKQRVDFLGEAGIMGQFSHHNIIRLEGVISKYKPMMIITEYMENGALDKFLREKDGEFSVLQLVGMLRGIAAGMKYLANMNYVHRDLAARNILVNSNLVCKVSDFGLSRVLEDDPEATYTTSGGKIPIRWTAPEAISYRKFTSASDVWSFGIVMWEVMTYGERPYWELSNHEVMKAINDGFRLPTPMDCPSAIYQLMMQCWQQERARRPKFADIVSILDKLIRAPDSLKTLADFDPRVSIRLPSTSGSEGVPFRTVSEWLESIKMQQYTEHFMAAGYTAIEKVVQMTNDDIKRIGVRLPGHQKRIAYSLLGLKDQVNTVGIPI

EphB4 receptor = biological target: T3, EphB4 receptor (Homo sapiens, UniProt P54760); test: EphB4 phosphorylation induced by ephrin-B2-Fc in T47D cells; format: cell-based; conditions: no ephrin, data not shown
T3 sequence (P54760 16-987): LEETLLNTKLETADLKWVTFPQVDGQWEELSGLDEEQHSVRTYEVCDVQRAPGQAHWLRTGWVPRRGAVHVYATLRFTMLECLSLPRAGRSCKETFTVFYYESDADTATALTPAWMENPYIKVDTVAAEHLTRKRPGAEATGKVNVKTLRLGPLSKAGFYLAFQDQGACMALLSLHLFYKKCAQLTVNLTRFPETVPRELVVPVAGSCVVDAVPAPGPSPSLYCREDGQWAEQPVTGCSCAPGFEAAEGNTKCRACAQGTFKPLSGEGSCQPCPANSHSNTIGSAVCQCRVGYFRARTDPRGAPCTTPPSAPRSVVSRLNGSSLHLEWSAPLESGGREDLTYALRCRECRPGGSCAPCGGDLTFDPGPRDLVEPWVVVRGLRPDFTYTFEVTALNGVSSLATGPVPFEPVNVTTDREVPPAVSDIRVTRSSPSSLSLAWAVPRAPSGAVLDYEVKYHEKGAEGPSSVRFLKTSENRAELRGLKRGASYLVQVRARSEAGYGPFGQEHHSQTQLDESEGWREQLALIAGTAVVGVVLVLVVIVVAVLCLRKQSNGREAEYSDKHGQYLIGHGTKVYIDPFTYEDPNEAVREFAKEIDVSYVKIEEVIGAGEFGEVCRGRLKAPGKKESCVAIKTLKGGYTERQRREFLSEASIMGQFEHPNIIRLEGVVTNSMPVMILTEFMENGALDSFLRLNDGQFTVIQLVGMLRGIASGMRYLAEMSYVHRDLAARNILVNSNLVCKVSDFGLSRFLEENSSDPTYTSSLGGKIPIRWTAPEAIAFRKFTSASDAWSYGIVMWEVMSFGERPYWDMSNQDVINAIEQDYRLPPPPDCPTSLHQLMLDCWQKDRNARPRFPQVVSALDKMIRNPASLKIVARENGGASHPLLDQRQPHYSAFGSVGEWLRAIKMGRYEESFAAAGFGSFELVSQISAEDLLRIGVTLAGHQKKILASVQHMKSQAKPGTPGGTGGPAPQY

[8] = tested on: EphA receptors (vs EphB receptors); format: binding; conditions: compared with lithocholic acid
[9] = biological target: T4, recombinant human EphA2 kinase domain (Homo sapiens, UniProt P29317); test: EphA2 kinase assay; format: biochemical; conditions: 100 μM, 30 minutes
T4 sequence (P29317 613-875 limits assumed): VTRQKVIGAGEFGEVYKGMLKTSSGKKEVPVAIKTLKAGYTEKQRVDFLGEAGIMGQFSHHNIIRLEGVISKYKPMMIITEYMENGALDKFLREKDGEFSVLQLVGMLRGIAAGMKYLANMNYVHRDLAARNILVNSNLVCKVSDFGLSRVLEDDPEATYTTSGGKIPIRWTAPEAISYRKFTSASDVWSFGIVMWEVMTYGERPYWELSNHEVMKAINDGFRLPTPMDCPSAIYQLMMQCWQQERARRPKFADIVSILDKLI

T1 sequence (Q03145 26-538 limits assumed): as the sequence (Q03145 26-538 limits assumed) above

SMILES	Ki [4] [µM]	Activity in EphA2-ephrin-A1 binding assay, in words [4]	other results
C[C@H](CCC(=O)O)[C@H]1CC[C@H]2[C@@H]3CC[C@@H]4C[C@H](O)CC[C@]4(C)[C@H]3CC[C@]12C [Compound 1, (3α,5β)-3-hydroxycholan-24-oic acid]			Effect on insulin receptor (insulin receptor): lack of effects; Effect on insulin-like growth factor receptor 1 [1]: lack of effects; Ki [2]: 49 ± 3 µM; Effect on VEGF receptor (VEGF receptor): lack of effects; Effect on EGF receptor (EGF receptor [3]): lack of effects
C[C@H](CCC(=O)O)[C@H]1CC[C@H]2[C@@H]3[C@H](O)C[C@@H]4C[C@H](O)CC[C@]4(C)[C@H]3C[C@H](O)[C@]12C [Compound 2, cholic acid]	> 200	inactive	
C[C@H](CCC(=O)O)[C@H]1CC[C@H]2[C@@H]3CC[C@@H]4C[C@H](O)CC[C@]4(C)[C@H]3C[C@H](O)[C@]12C [Compound 3, deoxycholic acid]	> 200	inactive	
C[C@H](CCC(=O)O)[C@H]1CC[C@H]2[C@@H]3[C@H](O)C[C@@H]4C[C@H](O)CC[C@]4(C)[C@H]3CC[C@]12C [Compound 4, chenodeoxycholic acid]	> 200	inactive	
C[C@H](CCC(=O)O)[C@H]1CC[C@H]2[C@@H]3CC[C@@H]4C[C@@H](O)CC[C@]4(C)[C@H]3CC[C@]12C [Compound 10, (3β,5β)-3-hydroxycholan-24-oic acid]			IC50 [4]: 67 µM; Schild plot slope ([4]; listed as isolithocholic): 0.96 ± 007
C[C@H](CCC(=O)O)[C@H]1CC[C@H]2[C@@H]3CC[C@@H]4C[C@@H](S(=O)(=O)O)CC[C@]4(C)[C@H]3CC[C@]12C [Compound 11, (3β,5β)-3-sulfocholan-24-oic acid]	> 200	inactive	
C[C@H](CCC(=O)O)[C@H]1CC[C@H]2[C@@H]3CC[C@@H]4CCCC[C@]4(C)[C@H]3CC[C@]12C [Compound 12, (5β)-cholan-24-oic acid]	5.1 ± 1.4		Kd (EphA2 receptor [5]; KD from steady state analysis, steady state affinity): 1.16 µM; Kd (EphA2 receptor [5]; affinity constant (KD) from kinetic analysis, koff/kon): 8.45 µM; kon (EphA2 receptor [5]; read-out: association rate (kon)): 44000 M⁻¹ s⁻¹; koff (EphA2 receptor [5]; read-out: dissociation rate (koff)): 0.369 s⁻¹; Effect on EGF receptor activation induced by EGF (EGF receptor [6]): did not interfere; Stimulation of EphA2 tyrosine phosphorylation by compound on its own (EphA2 receptor [7]): did not stimulate; Schild plot slope ([4]; listed as cholanic acid): 0.98 ± 002; Stimulation of EphB4 tyrosine phosphorylation by compound on its own (EphB4 receptor): did not stimulate; Selectivity between Eph receptor subfamilies, in words [8]: more selective for the EphA receptor subfamily; Effect on EphA2 kinase activity [9]: did not affect
COC(=O)CC[C@@H](C)[C@H]1CC[C@H]2[C@@H]3CC[C@@H]4C[C@H](O)CC[C@]4(C)[C@H]3CC[C@]12C [Compound 13, methyl (3α,5β)-3-hydroxycholan-24-oate]	> 200	inactive or weakly active	
C[C@H](CCC(=O)NO)[C@H]1CC[C@H]2[C@@H]3CC[C@@H]4C[C@H](O)CC[C@]4(C)[C@H]3CC[C@]12C [Compound 14, (3α,5β)-3-Hydroxycholan-24-hydroxamic acid]	> 200	inactive or weakly active	
C[C@H](CCC(=O)NN)[C@H]1CC[C@H]2[C@@H]3CC[C@@H]4C[C@H](O)CC[C@]4(C)[C@H]3CC[C@]12C [Compound 15, (3α,5β)-3-Hydroxycholan-24-hydrazide]	> 200	inactive or weakly active	
C[C@H](CCCO)[C@H]1CC[C@H]2[C@@H]3CC[C@@H]4C[C@H](O)CC[C@]4(C)[C@H]3CC[C@]12C [Compound 16, (3α,5β)-Cholan-3,24-diol]	186 ± 27	inactive or weakly active	

— paper PMC3677030 (ChemMedChem, 2012)
